These results are taken from PubChem BioAssay (NCI).

Molecules are shown by their SMILES. “And” between values parts separate entries of the source, which are not always exact repeats. Identical values can stand only once.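 These data come from cells grown in 96-well plates and exposed to compound for 48 hours at five concentrations. The concentration for 50% growth inhibition is given as GI50. TGI: concentration producing complete growth inhibition.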

Holding throughout (assay): inhibition of tumour cell growth, NCI panel, 48 h
The subject of assay [1] is 786-0 renal.
The test system of assay [2] is CCRF-CEM leukemia.
The test system of assay [3] is EKVX NSCLC.
The test system of assay [4] is HOP-62 NSCLC.
Assay [5] has as its system HOP-92 NSCLC.
Assay [6] deals with OVCAR-4 ovarian.
Assay [7] has as its system SK-MEL-2 melanoma.
The test system of assay [8] is SNB-75 CNS.
Assay [9] deals with UACC-257 melanoma.
Assay [10] deals with PC-3 prostate.

As for `O=c1[nH]nc2ccccc2c1Cl`, the TGI came to 28.4 µM in assay [1]; 34.9 µM in [2]; 15.5 µM in assay [3]; 40.7 µM in assay [4]; 12.3 µM in assay [5]; 23.8 µM in [6]. Also, the TGI amounted to 33.6 µM in [7], 47.1 µM in assay [8] and 29.7 µM in assay [9].
In the case of `CN(C)CCNC(=O)c1ccc(C(=O)NCCN(C)C)c2nc3ccccc3cc12`, the TGI in assay [1] is 13.8 µM; in assay [2], 10.2 µM; in assay [3], 6.89 µM; in assay [4], 4.45 µM; in [5], 7.99 µM; in [6], 3.52 µM. Further, the TGI in assay [7] turned out to be 2.57 µM; in assay [8] it was 3.46 µM; in assay [9], 4.47 µM.
Turning to `Nc1ccn(CCO)c(=O)n1`, the TGI in [1], in [2], in [3], in assay [4], in assay [5] and in [6] was above 100 µM throughout. The TGI in assay [7], in [8] and in assay [9] was above 100 µM throughout.
As to `CC(=O)Nc1ccc(/C=N\N2C(=O)c3ccccc3C2=O)cc1`, the TGI in [1], in assay [2], in assay [3], in [4], in [5] and in [6] was above 100 µM throughout. The TGI in [7], in assay [8] and in assay [9] was above 100 µM throughout.
On to `OCC(O)C(OC1OC(CO)C(O)C(O)C1O)c1nn(-c2ccccc2)c2nc3cc(Cl)c(Cl)cc3cc12` (stereo unspecified), for which the TGI in [1], in assay [2], in assay [3], in assay [4], in assay [6] and in assay [8] was above 100 µM in each case. In assay [9], this compound displayed a TGI above 100 µM.
Regarding `O=c1c2cccc3cccc(c4oc5c6cccc7cccc(c(=O)c5c14)c76)c32`, the TGI in assay [1] is 15.8 µM; in assay [2], 22.1 µM; in assay [3], 23.3 µM; in [4], above 100 µM; in assay [5], 15.2 µM; in assay [7], 23.3 µM. Further, the TGI is 21.7 µM in assay [8] and 30 µM in [9].
With `CCCCCCCCC(=O)N(C)C1C2CN3CCC(O2)C13` (stereo unspecified), the TGI in [1], in assay [2], in assay [3], in assay [4], in [6] and in assay [7] was above 100 µM in each case. Moreover, the TGI in assay [8] and in [9] was above 100 µM throughout.
For `N#C/C(=C1\NN=C(N)C(c2ccc(Cl)cc2)=C1O)c1ccc(Cl)cc1`, the TGI in assay [1], in [2], in assay [3], in [4], in [5] and in [6] was above 100 µM each time. The TGI in assay [8] and in assay [9] was above 100 µM throughout.
For `Cc1cc(C)c2c(c1)Nc1ccccc1P2c1ccccc1` (stereo unspecified), the TGI in assay [1] was above 100 µM; in [3], 91.1 µM; in [4] it was 66.8 µM; in assay [5], 58.9 µM; in [6], above 100 µM; in assay [8], 78.5 µM.
Turning to `COc1ccc(C2=NN(C(=O)COc3ccc(Cl)cc3)C(O)(c3ccc(Cl)cc3)C2)cc1` (stereo unspecified), the TGI in assay [1], in [4], in [5], in assay [6], in assay [7] and in [8] was above 100 µM in each case. The compound further registered a TGI in assay [9] above 100 µM.
As to `CCOC(=O)C1=C(NNC(=O)Cc2ccccc2)CSC1=Nc1ccccc1`, the TGI in [1], in assay [2], in assay [3], in assay [4], in assay [5] and in assay [6] was above 100 µM throughout. Besides, the TGI in [7], in assay [8] and in assay [9] was above 100 µM throughout.
Consider `Fc1cccc2cc3ccc4cccc5ccc(c12)c3c45`, for which the TGI in [1], in assay [2], in [3], in assay [4], in assay [6] and in assay [8] was above 100 µM throughout. Moreover, the TGI in assay [9] was above 100 µM.
In the case of `Cc1cccc(NC(=O)c2cc3cc(N=Nc4ccccc4Cl)ccc3oc2=O)c1`, the TGI in assay [1] was above 100 µM; in assay [2], above 100 µM; in assay [3] it was above 100 µM; in assay [4] it was above 100 µM; in [5], 76.1 µM; in [6] it was above 100 µM. Besides, the TGI in assay [8] and in [9] was above 100 µM each time.
As for `COC(C(=O)C(O)C(C)O)C1Cc2cc3cc(OC4CC(OC(C)=O)C(OC5CC(O)C(OC)C(C)O5)C(C)O4)cc(O)c3c(O)c2C(=O)C1OC1CC(OC2CC(OC3CC(C)(O)C(OC(=O)C(C)C)C(C)O3)C(O)C(C)O2)C(O)C(C)O1` (stereo unspecified), the GI50 in assay [1] is 0.0763 µM and 0.0168 µM; in [3] it was 0.0723 µM; in [4], 0.0795 µM and 0.0102 µM and 0.00856 µM; in assay [5], 0.0383 µM and 0.00429 µM; in [7], 0.0189 µM; in [8], 0.00157 µM. In addition, the GI50 in [9] was 0.00348 µM and < 0.0155 µM. Moreover, the TGI in assay [1] was 0.826 µM; in assay [5], 0.288 µM and 0.039 µM; in assay [7], 0.042 µM and 0.0104 µM; in assay [8], 0.0626 µM and 0.0109 µM and 0.0075 µM; in [9], 0.0977 µM and 0.0249 µM and < 0.0492 µM.
On to `CCN1CCN(CC(=O)Nc2nc3ccc(NCc4ccc(Cl)cc4)cc3s2)CC1`, for which the GI50 is 6.38 µM in [1]; 2.43 µM in assay [2]; 3.29 µM in assay [3]; 1.12 µM in assay [5]; 5.25 µM in assay [6]; 2.02 µM in [7]. The GI50 in assay [8] is 1.88 µM; in assay [9] it was 2.65 µM. Moreover, the TGI in assay [1] was 20.1 µM; in assay [2], 8.22 µM; in assay [3] it was above 100 µM; in [5], 2.77 µM; in assay [6], 90.6 µM; in assay [7] it was 3.98 µM. For the same compound, the results for the TGI in assay [8] and in [9] were 4.5 µM and 6.86 µM, respectively.
As to `CC1CC2C(=O)N(c3ccccc3)C(=O)C2c2c1c1ccccc1n2Cc1ccccc1` (stereo unspecified), the TGI in [1], in assay [2], in [3], in assay [4], in [5] and in assay [6] was above 100 µM each time. In addition, in [7], the TGI is above 100 µM.
Consider `NNC(=O)CCC(=O)Nc1cc(Cl)c(Cl)cc1Cl`, for which the TGI in assay [1], in assay [2], in assay [4], in assay [5], in [6] and in [7] was above 100 µM in each case. For the same compound, the TGI in [8] and in [9] was above 100 µM throughout.
For `COCC1N=C(c2cc(OC)c(OC)c(OC)c2-c2cc3c(cc2C2OCCCO2)OCO3)O[C@H]1c1ccccc1` (stereo partly specified), the TGI in assay [1], in [2], in assay [3], in assay [4], in assay [5] and in assay [6] was above 100 µM throughout. Besides, the TGI in assay [7], in assay [8] and in assay [9] was above 100 µM throughout.
With `O=C(O)CCSCCCN1C(=O)c2ccccc2C1=O`, the TGI in assay [1], in assay [3], in assay [5], in assay [6], in assay [7] and in [8] was above 100 µM in each case. This compound also showed a TGI in assay [9] above 100 µM.
On to `O=C(/C=C/c1ccc(Cl)c(Cl)c1)c1ccc(F)cc1`, for which the TGI was 28.9 µM in assay [1]; 20.5 µM in assay [2]; 55.3 µM in assay [3]; above 100 µM in [4]; 72.1 µM in assay [5]; 51.1 µM in assay [6]. Besides, the figures for the TGI in assay [8] and in assay [9] were 58.3 µM and 58 µM, respectively.
Turning to `O=C1CC(c2ccc3c(c2)OCO3)Nc2cc3c(cc21)OCO3` (stereo unspecified), the GI50 was 0.778 µM in assay [1]; 0.363 µM in assay [2]; 1.93 µM in assay [3]; 0.523 µM in assay [4]; 1.04 µM in [6]; 0.464 µM in assay [10]. For the same compound, the figures for the GI50 in assay [7] and in assay [9] were 0.747 µM and 21.3 µM, respectively. Besides, the TGI in [1] was 36.3 µM; in assay [2], above 100 µM; in [3], 72.6 µM; in assay [4], above 100 µM; in assay [6] it was above 100 µM; in assay [10], above 100 µM. In addition, the TGI in [7] is above 100 µM; in [9], 83 µM.
In the case of `COC(=O)C1C2C=CC(C2)C1(C(=O)OC)S(=O)CC12CCC(CC1O)C2(C)C` (stereo unspecified), the TGI in assay [1], in [2], in assay [3], in assay [4], in [5] and in [6] was above 100 µM in each case. The TGI in assay [7], in assay [8] and in assay [9] was above 100 µM throughout.
For the compound `COc1ccc(C(Cc2cc(OC)c(OC)c(OC)c2)C(=O)O)cc1` (stereo unspecified), the TGI in assay [1], in [2], in assay [3], in assay [4], in assay [6] and in assay [7] was above 100 µM in each case. The results for the TGI in [8] and in assay [9] were 65.2 µM and above 100 µM, respectively.
On to `CS(=O)(=O)OCCn1cnc2nc(NC(=O)c3ccccc3)[nH]c(=O)c21`, for which the TGI in [1], in [2], in assay [3], in assay [4], in [5] and in assay [6] was above 100 µM throughout. In addition, the TGI in [7], in [8] and in assay [9] was above 100 µM in each case.
As to `Nc1c(Br)c(=O)[nH]c(=O)n1COCCO`, the TGI in assay [1], in [2], in assay [4], in assay [5], in [6] and in assay [8] was above 100 µM each time. Besides, the TGI in [9] was above 100 µM.
Turning to `COc1ccc(-c2cc(-c3ccccc3)nc(N3CCN(CCNc4ccnc5cc(Cl)ccc45)CC3)n2)cc1`, the GI50 was 1.52 µM in assay [1]; 2.19 µM in assay [2]; 19 µM in assay [3]; 1.97 µM in assay [4]; 1.14 µM in [5]; 1.87 µM in [6]. The GI50 was 6.78 µM in assay [7] and 14.9 µM in assay [8]. The TGI in [1] is 2.94 µM; in assay [2], above 100 µM; in assay [3], 48.3 µM; in [4], 4.04 µM; in assay [5], 3.35 µM; in assay [6], 4.05 µM. For the same compound, the TGI in assay [7] stood at 20.8 µM; in assay [8] it was 28.8 µM.
Turning to `Cc1ccc(S(=O)(=O)NNC(=O)c2sc(-c3nc(C)c(C(=O)NNS(=O)(=O)c4ccc(C)cc4)s3)nc2C)cc1`, the TGI in assay [1], in assay [2], in assay [3], in assay [4], in assay [5] and in assay [7] was above 100 µM in each case. Moreover, the TGI in assay [8] and in [9] was above 100 µM throughout.
Take `CC(/C(=N/NC(=O)C(N)=O)c1c(Cl)ccc(Cl)c1O)C1(O)C(=O)Nc2ccccc21` (stereo unspecified): the TGI in [1] was above 100 µM; in [2], 75.8 µM; in assay [3] it was above 100 µM; in assay [4], above 100 µM; in assay [5], 75.2 µM; in [6] it was 92.3 µM. Besides, the TGI in assay [7], in assay [8] and in assay [9] was above 100 µM throughout.
For the compound `CC1CC(c2cccc3c2OCO3)=Nc2ccccc2S1` (stereo unspecified), the TGI in assay [1], in assay [2], in [3], in [5], in [6] and in [7] was above 100 µM throughout. For the same compound, the TGI in [8] and in assay [9] was above 100 µM throughout.
